Measured values taken from patent US10590393B2, “Retinoic acid enhanced human stem cell derived blood brain barrier model” (Wisconsin Alumni Research Foundation, priority 2012, dated 2020).
Values joined by “and” are separate entries in the source; they are usually repeats but may differ in a detail not shown here. Equal values may be shown once.

Experiments:
Type in all cases: cell-based, human
[1] = test system: efflux transporter genes in IMR90-4-derived BMECs; assay: qPCR of efflux transporter gene expression; conditions: compared to untreated samples
Procedure: Cells were washed once with PBS and dissociated with ACCUTASE (Invitrogen). Total RNA was extracted using an RNEASY Mini Kit (Qiagen) according to the manufacturer's instructions and quantified using a NanoDrop® ND-1000. cDNA was generated from 1 μg of total RNA using Omniscript reverse transcriptase (Qiagen) and an oligo-dT primer (Invitrogen). qPCR was conducted using 1 μL of cDNA and iQ SYBR Green Mastermix (Bio-Rad) on an iCycler (Bio-Rad). Relative expression was quantified between samples using the comparative cycle threshold (Ct) method with glyceraldehyde-3-phosphate dehydrogenase (GAPDH) as the housekeeping gene. […] Primer sequences were as previously reported.

IMR90-4-derived BMECs = assay: Efflux transporter substrate accumulation; conditions: 10 μM RA vs. DMSO-treated controls; 1 h at 37° C.
Procedure: (§1) hiPSC-derived BMECs differentiated in the presence or absence of RA were subcultured onto 12-well plates in EC medium with 10 μM RA or equivalent DMSO depending on the differentiation condition. […] Cells were washed three times with phosphate-buffered saline (PBS) and then lysed with PBS containing 5% Triton X-100 (TX-100; Fisher). Fluorescence (485 nm excitation and 530 nm emission) was measured using a plate reader and radioactivity was measured on a scintillation counter. Fluorescence/radioactivity was normalized on a per cell basis by counting trypsin-dissociated cells on a hemacytometer. Duplicate or triplicate wells were used for each condition to calculate mean and standard deviation. Each experiment was conducted twice to ensure biological reproducibility.

DF19-9-11T-derived BMECs [2] = assay: Efflux transporter substrate accumulation; conditions: due to RA treatment
Procedure: as §1

DF19-9-11T-derived BMECs [3] = assay: TEER of RA-treated DF19-9-11T-derived BMECs
Procedure: IMR90-4 and DF19-9-11T hiPSCs and H9 hESCs were maintained between passages 26-42 on […] (BD Biosciences) in mTeSR1™ medium ([…] Technologies) or on irradiated mouse embryonic fibroblasts (MEFs) in standard unconditioned medium (Dulbecco's Modified Eagle's Medium [DMEM]/Ham's F12 containing 20% Knockout Serum Replacer (Invitrogen), 1×MEM nonessential amino acids (Invitrogen), 1 mM L-glutamine (Sigma), 0.1 mM β-mercaptoethanol (Sigma), and human basic fibroblast growth factor (bFGF; 100 ng/mL for hiPSCs and 4 ng/mL for hESCs; Waisman Clinical Biomanufacturing Facility, University of Wisconsin-Madison)). Prior to differentiation, cells were passaged onto Matrigel (BD Biosciences) in mTeSR1 medium ([…] Technologies). After 2-3 days in mTeSR1, medium was switched to unconditioned medium (UM) lacking bFGF for 6 days. Human endothelial serum-free medium (hESFM; Invitrogen) supplemented with 20 ng/mL bFGF (R&D Systems) and 1% platelet-poor plasma derived bovine serum (Biomedical Technologies, Inc.) was then added for an additional 2-4 days.
All-trans RA (Sigma) was included at concentrations of 1-10 μM depending on the experiment. Equivalent DMSO was used as a vehicle control in some experiments. Cells were then dissociated with Versene (Invitrogen) and plated onto 12-well tissue culture polystyrene plates or 1.12 cm^2 Transwell-Clear® permeable inserts (0.4 μm pore size) coated with a mixture of collagen IV (400 μg/mL; Sigma) and fibronectin (100 μg/mL; Sigma). Culture plates were incubated with the coating for at least 30 min at 37° C., while the inserts were incubated for a minimum of 4 h at 37° C. hPSC-derived BMECs were then cultured in EC medium overnight (with or without RA). […] Also, our previous study used hPSCs exclusively maintained on MEFs.
FIG. 5 dictates the timing of co-culture experiments. […] Trans-endothelial electrical resistance (TEER) was measured immediately prior to co-culture using an EVOM voltohmmeter (World Precision Instruments, Sarasota, Fla., USA) and approximately every 24 h thereafter as necessary.

In the case of CC1=C(/C=C/C(C)=C/C=C/C(C)=C/C(=O)O)C(C)(C)CCC1 [RA, retinoic acid], the “ABCB1 (p-glycoprotein) upregulation, ΔΔCt” value [1] is reported as 1.6±0.4, the “ABCC1 (MRP1) upregulation, ΔΔCt” value [1] is reported as 1.97±0.71 and the “ABCC2 (MRP2) upregulation, ΔΔCt” value [1] is reported as 1.3±0.31. For the same molecule, the “ABCC5 (MRP5) upregulation, ΔΔCt” value [1] was 0.9±0.29, the “ABCG2 (BCRP) upregulation, ΔΔCt” value [1] was 1.8±0.15 and the “decrease of DCFDA accumulation” value (IMR90-4-derived BMECs) was 2.9 fold. The “decrease of colchicine accumulation” value (IMR90-4-derived BMECs) was 2.4 fold, the “decrease of doxorubicin accumulation” value (IMR90-4-derived BMECs) was 1.6 fold and the “decrease of rhodamine 123 accumulation” value (IMR90-4-derived BMECs) was 1.4 fold. The “reduction in rhodamine 123 accumulation” value (DF19-9-11T-derived BMECs [2]) was 1.5 fold, the “Maximum TEER” value (DF19-9-11T-derived BMECs [3]; subculture: pericytes, co-culture phase: differentiated NPCs (11 days), 1% PDS) was 4738±303 Ω × cm^2 and 4738 ± 303 (2) Ω × cm^2 and the “Average TEER” value (DF19-9-11T-derived BMECs [3]; t = 24 h, between biological replicates) was 1707 ± 417 Ω × cm^2. For the same molecule, the “Maximum TEER” value (DF19-9-11T-derived BMECs [3]; t = 24 h, triplicate filters) was 1968±288 Ω × cm^2.
